According to patent US20260125378A2, “Heterocyclic Compounds” (BeOne Medicines I GmbH, priority 2023, published 2026):
pIC50: −log10 of the molar value.

How the values were obtained:
[1] = target: T1, Full length DGKζ (in-house protein M1-V929) (Homo sapiens, UniProt Q13574); experiment: Biochemical DGK IC50 assay (ADP-Glo, lipid micelle substrate), DGKζ; settings: 1 hour preincubation, 1 hour reaction, room temperature
T1 construct: His (N); TEV site (N); made in house; host or cells: Sf9 insect cells (Bac-to-Bac baculovirus)
Summary of the method: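 Enzyme: full-length human DGKζ M1-V929, produced in baculovirus-infected Sf9 cells; substrate DAG/PS micelles. Buffer 50 mM HEPES, 10 mM MgCl2, 0.01 mM CaCl2, 0.1 mM Na3VO4.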

[2] = target: T2, Full length DGKα (D21-10BG, SignalChem) (Homo sapiens, UniProt P23743); experiment: Biochemical DGK IC50 assay (ADP-Glo, lipid micelle substrate), DGKα; settings: 1 hour preincubation, 1 hour reaction, room temperature
T2 construct: Full length DGKα (D21-10BG, SignalChem); purchased SignalChem D21-10BG
Summary of the method: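 ADP-Glo luminescence quantified ADP produced after a 1 h room-temperature reaction of full-length DGKα on DAG/PS micelles, in HEPES buffer containing MgCl2, CaCl2, vanadate, BSA and Tween-20. IC50 values derive from activity inhibition over a compound concentration series.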

T2 sequence (P23743 whole entry): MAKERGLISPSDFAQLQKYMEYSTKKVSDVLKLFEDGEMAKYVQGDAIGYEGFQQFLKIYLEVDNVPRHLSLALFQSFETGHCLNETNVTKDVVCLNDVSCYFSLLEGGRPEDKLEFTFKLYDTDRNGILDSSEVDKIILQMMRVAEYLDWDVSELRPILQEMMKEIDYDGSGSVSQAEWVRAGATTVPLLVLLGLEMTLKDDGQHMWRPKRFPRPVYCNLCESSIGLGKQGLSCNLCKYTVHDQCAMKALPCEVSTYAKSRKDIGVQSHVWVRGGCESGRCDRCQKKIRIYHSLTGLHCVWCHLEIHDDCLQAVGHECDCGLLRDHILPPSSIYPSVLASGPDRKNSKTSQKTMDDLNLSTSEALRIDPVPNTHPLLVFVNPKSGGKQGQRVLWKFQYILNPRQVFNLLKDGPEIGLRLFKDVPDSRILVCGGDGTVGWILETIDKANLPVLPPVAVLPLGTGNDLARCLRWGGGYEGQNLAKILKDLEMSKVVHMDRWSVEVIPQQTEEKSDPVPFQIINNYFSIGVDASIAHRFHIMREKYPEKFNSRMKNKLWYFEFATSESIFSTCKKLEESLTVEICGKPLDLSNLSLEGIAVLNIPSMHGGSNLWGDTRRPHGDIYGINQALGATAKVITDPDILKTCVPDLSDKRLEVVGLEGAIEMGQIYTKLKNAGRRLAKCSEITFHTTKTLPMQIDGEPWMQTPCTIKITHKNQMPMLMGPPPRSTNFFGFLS
T1 sequence (Q13574 1-929 isoform Q13574-4): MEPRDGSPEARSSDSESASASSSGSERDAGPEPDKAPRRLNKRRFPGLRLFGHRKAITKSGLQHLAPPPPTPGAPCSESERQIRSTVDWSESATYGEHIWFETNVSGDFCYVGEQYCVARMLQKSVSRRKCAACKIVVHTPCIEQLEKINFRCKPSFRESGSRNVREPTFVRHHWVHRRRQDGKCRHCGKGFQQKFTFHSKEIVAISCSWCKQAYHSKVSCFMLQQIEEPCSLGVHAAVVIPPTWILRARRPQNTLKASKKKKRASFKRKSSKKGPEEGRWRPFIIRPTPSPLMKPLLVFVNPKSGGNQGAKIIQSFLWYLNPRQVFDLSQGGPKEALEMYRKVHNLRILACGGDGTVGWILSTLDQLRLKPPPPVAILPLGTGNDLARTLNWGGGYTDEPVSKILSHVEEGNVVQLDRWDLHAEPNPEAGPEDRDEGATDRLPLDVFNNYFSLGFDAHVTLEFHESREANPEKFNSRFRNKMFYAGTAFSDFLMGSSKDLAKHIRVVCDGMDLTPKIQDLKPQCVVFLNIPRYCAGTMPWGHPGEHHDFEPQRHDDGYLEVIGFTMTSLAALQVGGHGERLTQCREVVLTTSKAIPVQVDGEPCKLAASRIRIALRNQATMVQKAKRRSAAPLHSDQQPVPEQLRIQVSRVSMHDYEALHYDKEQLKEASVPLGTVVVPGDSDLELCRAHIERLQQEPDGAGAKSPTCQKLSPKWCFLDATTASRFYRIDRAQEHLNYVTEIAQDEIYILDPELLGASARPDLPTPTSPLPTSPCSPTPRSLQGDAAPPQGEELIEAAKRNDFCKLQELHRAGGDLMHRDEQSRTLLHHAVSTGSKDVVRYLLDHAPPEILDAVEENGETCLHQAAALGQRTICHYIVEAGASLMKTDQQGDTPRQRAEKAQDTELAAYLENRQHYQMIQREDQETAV

## CCn1c(CC#N)nc2c(N3C[C@@H](C)N(C(C)c4ccc(F)cc4C(F)(F)F)C[C@@H]3C)nc(=O)n(C)c21 (single isomer, unassigned) [Compound A35b]
[1]
  pIC50: 7.62
[2]
  pIC50: < 3.82

## CCn1c(CC#N)nc2c(N3C[C@@H](C)N(C(C)c4ccc5c(c4)C(=O)N(C)C5)C[C@@H]3C)nc(=O)n(C)c21 (stereo partly drawn) [Compound A100, 2-(6-((2S,5R)-2,5-dimethyl-4-(1-(2-methyl-3-oxoisoindolin-5-yl)ethyl)piperazin-1-yl)-9-ethyl-3-methyl-2-oxo-3,9-dihydro-2H-purin-8-yl)acetonitrile]
[1]
  pIC50: 5.39
[2]
  pIC50: < 3.82

## COCc1cc(F)ccc1C(C)N1C[C@H](C)N(c2nc(=O)n(C)c3c2nc(CC#N)n3C)C[C@H]1C (single isomer, unassigned) [Compound A27b]
[1]
  pIC50: 7.82
[2]
  pIC50: 4.00

## CCn1c(CC#N)nc2c(N3C[C@@H](C)N(C(C)c4ccc(OC)c(C(C)(F)F)c4)C[C@@H]3C)nc(=O)n(C)c21 (stereo partly drawn) [Compound A39, 2-(6-((2S,5R)-4-(1-(3-(1,1-difluoroethyl)-4-methoxyphenyl)ethyl)-2,5-dimethylpiperazin-1-yl)-9-ethyl-3-methyl-2-oxo-3,9-dihydro-2H-purin-8-yl)acetonitrile]
[1]
  pIC50: 6.68
[2]
  pIC50: < 3.82

## CC(c1nc2c(cc1F)OCC(C)(C)O2)N1C[C@H](C)N(c2nc(=O)n(C)c3c2nc(CC#N)n3C)C[C@H]1C (stereo partly drawn) [Compound A162, 2-(6-((2S,5R)-4-(1-(7-fluoro-3,3-dimethyl-2,3-dihydro-[1,4]dioxino[2,3-b]pyridin-6-yl)ethyl)-2,5-dimethylpiperazin-1-yl)-3,9-dimethyl-2-oxo-3,9-dihydro-2H-purin-8-yl)acetonitrile]
[1]
  pIC50: 7.48
[2]
  pIC50: 4.22

## CC(c1ccc2nccnc2c1)N1C[C@H](C)N(c2cc(=O)n(C)c3c2nc(CC#N)n3C)C[C@H]1C (single isomer, unassigned) [Compound A1a]
[1]
  pIC50: 8.05
[2]
  pIC50: 4.83

## COC[C@H]1CN(C(C)c2ccc3c(c2)OC(C)(C)CO3)[C@H](C)CN1c1nc(=O)n(C)c2c1nc(CC#N)n2C (single isomer, unassigned) [Compound A12b]
[1]
  pIC50: 7.24
[2]
  pIC50: 4.56

## [2H]C([2H])([2H])n1c(CC#N)nc2c(N3C[C@@H](C)N(C(C)c4ccc(F)cc4C(F)(F)F)C[C@@H]3C)nc(=O)n(C([2H])([2H])[2H])c21 (stereo partly drawn) [Compound A36, 2-(6-((2S,5R)-4-(1-(4-fluoro-2-(trifluoromethyl)phenyl)ethyl)-2,5-dimethylpiperazin-1-yl)-3,9-bis(methyl-d3)-2-oxo-3,9-dihydro-2H-purin-8-yl)acetonitrile]
[1]
  pIC50: 7.77
[2]
  pIC50: 3.98

## CCn1c(CC#N)nc2c(N3C[C@@H](C)N(C(C)c4ccnc5c4OCCC5(F)F)C[C@@H]3C)nc(=O)n(C)c21 (single isomer, unassigned) [Compound A103b]
[1]
  pIC50: 7.28
[2]
  pIC50: < 3.82

## CC(c1ccc(F)cc1C(F)(F)F)N1C[C@H](C)N(c2nc(=O)n(C)c3c2nc(CC#N)n3C)C[C@H]1C (single isomer, unassigned) [Compound A33b]
[1]
  pIC50: 8.52
[2]
  pIC50: < 5.00

## CCn1c(CC#N)nc2c(N3C[C@@H](C)N(C(C)c4nc5c(cc4F)OCC(C)(C)O5)C[C@@H]3C)nc(=O)n(C)c21 (single isomer, unassigned) [Compound A161a]
[1]
  pIC50: 7.62
[2]
  pIC50: 4.14

## CCn1c(CC#N)nc2c(N3C[C@@H](C)N(C(C)c4ccc5c(c4)OC4(CCC4)O5)C[C@@H]3C)nc(=O)n(C)c21 (mixture of isomers) [Compound A169, 2-(6-((2S,5R)-2,5-dimethyl-4-(1-(spiro[benzo[d][1,3]dioxole-2,1′-cyclobutan]-5-yl)ethyl)piperazin-1-yl)-9-ethyl-3-methyl-2-oxo-3,9-dihydro-2H-purin-8-yl)acetonitrile]
[1]
  pIC50: 7.51
[2]
  pIC50: 4.55

## CCn1c(CC#N)nc2c(N3C[C@@H](C)N(C(C)c4cc5c(cc4F)OC(C)(C)CO5)C[C@@H]3C)nc(=O)n(C)c21 (single isomer, unassigned) [Compound A156b]
[1]
  pIC50: 8.22
[2]
  pIC50: 4.85

## CCn1c(CC#N)nc2c(N3C[C@@H](C)N(C(C)c4cc(C(F)(F)F)ccc4F)C[C@@H]3C)nc(=O)n(C)c21 (stereo partly drawn) [Compound A114, 2-(9-ethyl-6-((2S,5R)-4-(1-(2-fluoro-5-(trifluoromethyl)phenyl)ethyl)-2,5-dimethylpiperazin-1-yl)-3-methyl-2-oxo-3,9-dihydro-2H-purin-8-yl)acetonitrile]
[1]
  pIC50: 6.61
[2]
  pIC50: 3.87

## CCn1c(CC#N)nc2c(N3C[C@@H](C)N(C(C)c4cccc(OC)c4)C[C@@H]3C)nc(=O)n(C)c21 (stereo partly drawn) [Compound A46, 2-(9-ethyl-6-((2S,5R)-4-(1-(3-methoxyphenyl)ethyl)-2,5-dimethylpiperazin-1-yl)-3-methyl-2-oxo-3,9-dihydro-2H-purin-8-yl)acetonitrile]
[1]
  pIC50: 6.52
[2]
  pIC50: < 3.82

## COC(C)c1cc(F)ccc1C(C)N1C[C@H](C)N(c2nc(=O)n(C)c3c2nc(CC#N)n3C)C[C@H]1C (stereo partly drawn) [Compound A28, 2-(6-((2S,5R)-4-(1-(4-fluoro-2-(1-methoxyethyl)phenyl)ethyl)-2,5-dimethylpiperazin-1-yl)-3,9-dimethyl-2-oxo-3,9-dihydro-2H-purin-8-yl)acetonitrile]
[1]
  pIC50: 8.52
[2]
  pIC50: 4.01

## CCn1c(CC#N)nc2c(N3C[C@@H](C)N(C(C)c4cc(F)c5c(n4)OC(C)(C)CO5)C[C@@H]3C)nc(=O)n(C)c21 (single isomer, unassigned) [Compound A163b]
[1]
  pIC50: 5.68
[2]
  pIC50: < 3.82

## CCn1c(CC#N)nc2c(N3C[C@@H](C)N(C(C)c4nc5c(cc4F)OCC(C)(C)O5)C[C@@H]3C)nc(=O)n(C)c21 (single isomer, unassigned) [Compound A161b]
[1]
  pIC50: 5.58
[2]
  pIC50: < 3.82

## CC(c1ccc(C(F)(F)F)cn1)N1C[C@H](C)N(c2nc(=O)n(C)c3c2nc(CC#N)n3C)C[C@H]1C (single isomer, unassigned) [Compound A148a]
[1]
  pIC50: 5.96
[2]
  pIC50: 5.44

## CC(c1ccc(F)cc1C(F)(F)F)N1C[C@H](C)N(c2cc(=O)n(C)c3[nH]c(CC#N)nc23)C[C@H]1C (stereo partly drawn) [Compound A9, 2-(7-((2S,5R)-4-(1-(4-fluoro-2-(trifluoromethyl)phenyl)ethyl)-2,5-dimethylpiperazin-1-yl)-4-methyl-5-oxo-4,5-dihydro-3H-imidazo[4,5-b]pyridin-2-yl)acetonitrile]
[1]
  pIC50: 6.58
[2]
  pIC50: < 5.00

## CC[C@H]1CN(C(C)c2ccc(F)cc2C(F)(F)F)[C@H](CC)CN1c1nc(=O)n(C)c2c1nc(CC#N)n2C (single isomer, unassigned) [Compound A34b]
[1]
  pIC50: 8.05
[2]
  pIC50: < 5.00

## CCn1c(CC#N)nc2c(N3C[C@@H](C)N(C(C)c4cccc(C(C)(C)CO)c4)C[C@@H]3C)nc(=O)n(C)c21 (stereo partly drawn) [Compound A133, 2-(9-ethyl-6-((2S,5R)-4-(1-(3-(1-hydroxy-2-methylpropan-2-yl)phenyl)ethyl)-2,5-dimethylpiperazin-1-yl)-3-methyl-2-oxo-3,9-dihydro-2H-purin-8-yl)acetonitrile]
[1]
  pIC50: 6.95
[2]
  pIC50: < 3.82

## CCn1c(CC#N)nc2c(N3C[C@@H](C)N(C(C)c4ccc5ccc(C)nc5c4)C[C@@H]3C)nc(=O)n(C)c21 (stereo partly drawn) [Compound A90, 2-(6-((2S,5R)-2,5-dimethyl-4-(1-(2-methylquinolin-7-yl)ethyl)piperazin-1-yl)-9-ethyl-3-methyl-2-oxo-3,9-dihydro-2H-purin-8-yl)acetonitrile]
[1]
  pIC50: 6.67
[2]
  pIC50: < 3.82
